From PMC10122656, “Siglec-6 mediates the uptake of extracellular vesicles through a noncanonical glycolipid binding pocket” (Nature Communications, 2023)
Values joined by “and” are separate entries in the source; they are usually repeats but may differ in a detail not shown here. Equal entries are not always repeated.

Columns and labels:
Test in all cases: Cell assay (liposome/EV binding, flow cytometry);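 for liposome binding, fluorescence signal (replicates): AF647 fluorescence intensity from 0.1 mol% AF647–PEG45–DSPE in liposomes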
Siglec-5 R119A CHO cells = target: T1, Siglec-5 R119A CHO cells (Homo sapiens, UniProt O15389, R119A); type: cell-based; conditions: Sig-5 R119A†; † after treatment of cells with neuraminidase; 3 mol% ganglioside liposomes; replicates
T1 construct: expressed in transfected cells
T1 sequence (O15389 17-551 R119A): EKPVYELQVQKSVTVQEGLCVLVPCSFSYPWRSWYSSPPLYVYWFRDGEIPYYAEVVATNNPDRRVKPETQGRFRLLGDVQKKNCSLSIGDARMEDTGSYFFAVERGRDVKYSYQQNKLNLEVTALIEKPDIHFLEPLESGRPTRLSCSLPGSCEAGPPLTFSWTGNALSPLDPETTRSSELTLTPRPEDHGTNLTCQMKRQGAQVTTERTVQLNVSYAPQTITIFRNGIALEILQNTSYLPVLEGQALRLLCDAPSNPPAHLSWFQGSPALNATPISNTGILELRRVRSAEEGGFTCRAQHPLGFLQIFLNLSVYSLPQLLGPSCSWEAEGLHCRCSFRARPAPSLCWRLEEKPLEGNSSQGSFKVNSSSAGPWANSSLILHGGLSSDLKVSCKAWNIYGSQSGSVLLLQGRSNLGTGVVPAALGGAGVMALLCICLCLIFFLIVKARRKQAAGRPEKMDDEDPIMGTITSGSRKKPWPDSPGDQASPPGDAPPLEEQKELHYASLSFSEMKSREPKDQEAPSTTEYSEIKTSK
Experimental: (§1) Stock lipids (DSPC, Cholesterol, PEG45–DSPE) solutions were prepared by solvating the lipids in chloroform. An appropriate volume of each lipid solution was transferred to a glass test tube to reach the desired mol% of the component. The chloroform was then removed under N2 gas to yield a lipid thin film. Once dry, 100 µL of DMSO was added to the lipid-containing test tube and then the functional lipids (ganglioside, AF647–PEG45–DSPE, Siglec ligand–PEG45–DSPE, pHrodo–PEG45–DSPE, NGL) was added from their respect DMSO stock solution. The lipid mixture was then stored at −80 °C until completely frozen at which point excess DMSO was removed via lyophilization. Dry lipids were then stored at −80 °C until they were extruded. Lipid suppliers can be found in Supplementary Table 4.
(§2) Dry lipids were then hydrated in 1 mL of PBS. The lipids were then sonicated in a bath sonicator in a cycle of 1 min on, 5 min off for a total of five cycles. Liposomes were then extruded using an Avanti mini extruder first using an 800 nm filter and then a 100 nm filter yielding liposomes that were 130 ± 35 nm (Supplementary Table 5) measured using a Malvern Panalytical Zetasizer Nano S. Liposomes were stored at 4 °C.
(§3) 200,000 cells/well were plated into a 96-well U-bottom microplate and centrifuged at 300 × g for 5 min. The cells were then resuspended in 50 µL of 50 µM liposome/50 µg/mL (protein concentration) of EV solution in DMEM F12 5% FBS and incubated at 37 °C for 30 min. Excess liposomes were then removed via centrifuged at 300 × g for 5 min followed by washing the cells with FACS solution. The cells were then resuspended in (1:250 V/V) anti-Siglec-flow buffer (1% V/V FBS, 500 µM, EDTA Hank’s Balanced Salt Solution pH 7.4), solution and left to rest on ice for 30 min. The cells were then centrifuged again at 300 × g for 5 min and the cells were resuspended in FACS buffer solution and were then ready for analysis by flow cytometry. Information regarding antibody clone, catalog number supplier, label isotype, and dilution can be found in Supplementary Table 6. The Siglec-positive cells were gated on for liposome-binding analysis (Supplementary Fig. 1b).
(§4) Flow cytometry measurements were collected on a 5-laser Fortessa X-20 (BD Bioscience). All the resulting data were analyzed using FlowJo (10.5.3) software (BD Biosciences).
Cells were harvested and resuspended in complete media with either Neuraminidase A or S. The cells were then placed in a 37 °C shaking incubator for 1 h. The cells were then washed with complete media and then the liposome binding assay was performed as described above.

Siglec-11 WT CHO cells = target: T2, Siglec-11 WT CHO cells (Homo sapiens, UniProt Q96RL6); type: cell-based; conditions: Sig-11 WT; 3 mol% ganglioside liposomes; replicates
T2 construct: expressed in transfected cells
T2 sequence (Q96RL6 28-698): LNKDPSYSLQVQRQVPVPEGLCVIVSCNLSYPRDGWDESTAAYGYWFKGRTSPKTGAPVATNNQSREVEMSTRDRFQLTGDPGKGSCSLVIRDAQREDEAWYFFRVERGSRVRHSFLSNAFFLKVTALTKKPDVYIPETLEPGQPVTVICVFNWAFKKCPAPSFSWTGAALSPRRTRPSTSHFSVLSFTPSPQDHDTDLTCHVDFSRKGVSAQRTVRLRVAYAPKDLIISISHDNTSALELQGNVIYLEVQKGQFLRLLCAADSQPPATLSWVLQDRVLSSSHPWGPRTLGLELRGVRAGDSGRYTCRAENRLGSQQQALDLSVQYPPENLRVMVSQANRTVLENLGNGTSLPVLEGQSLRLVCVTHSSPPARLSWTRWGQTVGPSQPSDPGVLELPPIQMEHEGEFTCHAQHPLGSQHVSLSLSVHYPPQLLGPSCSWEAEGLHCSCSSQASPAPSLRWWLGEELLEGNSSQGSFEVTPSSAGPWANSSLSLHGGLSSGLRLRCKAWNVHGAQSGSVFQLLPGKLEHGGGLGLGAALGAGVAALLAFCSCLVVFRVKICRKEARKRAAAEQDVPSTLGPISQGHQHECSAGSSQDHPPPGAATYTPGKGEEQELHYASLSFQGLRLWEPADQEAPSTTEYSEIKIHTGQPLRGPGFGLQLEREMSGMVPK
Outline: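 Binding of AF647-labelled, Siglec ligand-bearing liposomes (130 ± 35 nm) or EVs was measured on transfected CHO cells. Exposure was 50 µM or 50 µg/mL for 30 min at 37 °C; Siglec-positive cells were gated for analysis.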

[1] = test system: untransfected (UT) CHO cells; type: cell-based, Chinese Hamster; conditions: for log10(MFI AF647) of GLL relative to log10(MFI AF647) of the same GLL against UT CHO cells (Fig. 2a): 3 mol% ganglioside liposomes, replicates;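 for liposome binding, fluorescence signal (replicates): AF647 fluorescence intensity from 0.1 mol% AF647–PEG45–DSPE in liposomes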
Experimental: as §1, §2, §3, §4

Molecule	log10(MFI AF647) of GLL relative to log10(MFI AF647) of the same GLL against UT CHO cells (Fig. 2a) (Siglec-5 R119A CHO cells)	log10(MFI AF647) of GLL relative to log10(MFI AF647) of the same GLL against UT CHO cells (Fig. 2a) (Siglec-11 WT CHO cells)	log10(MFI AF647) of GLL relative to log10(MFI AF647) of the same GLL against UT CHO cells (Fig. 2a) ([1]; UT)	liposome binding, fluorescence signal (replicates) ([1]; sheet Figure S22b, CHO)	liposome binding, fluorescence signal (replicates) ([1]; sheet Figure S26a, 3% GM3-DAG liposomes, Untrans.)	liposome binding, fluorescence signal (replicates) ([1]; sheet Figure S28b, 3% GM3-DAG liposomes, UT)	liposome binding, fluorescence signal (replicates) ([1]; sheet Figure S26d, CHO)
GD1a	-0.25 and -0.02 and -0.03 and 0.01	-0.11 (2×) and -0.07 and -0.09	0.01 and -0.05 and 0 and 0.04				
GM4	-0.2 (3×) and -0.21	-0.11 and -0.09 (2×) and -0.07	0.02 and -0.01 (2×) and 0				
CCCCCCCCCCCCCCCCOCC(COCCCCCCCCCCCCCCCC)OCc1cn(CCO[C@@H]2O[C@H](CO)[C@@H](O[C@@H]3O[C@H](CO)[C@H](O)[C@H](O[C@]4(C(=O)O)C[C@H](O)[C@@H](NC(C)=O)[C@H]([C@H](O)[C@H](O)CO)O4)[C@H]3O)[C@H](O)[C@H]2O)nn1 [GM3-DAG]				267 and 269 and 241 and 218	298 and 293 and 301 and 291	268 and 273 and 248 and 260	38 and 35 and 41
GM3	-0.22 (2×) and -0.21 and -0.24	-0.1 and -0.09 and -0.11 and -0.12	0.01 (2×) and -0.01 and 0				
GQ1b	-0.2 and -0.19 and -0.12 and -0.08	-0.25 and -0.21 and -0.2 and -0.24	0.01 and -0.02 (2×) and 0.03				
GT1b	-0.05 and -0.03 and 0.02 and 0.1	-0.17 and -0.15 and -0.13 (2×)	0 (2×) and 0.01 and -0.01				
GD1b	0.17 and -0.03 and -0.02 and 0.04	-0.1 (3×) and -0.09	0.01 (2×) and -0.01 (2×)				
GM1	-0.32 and -0.33 and -0.29 and -0.28	0.11 and 0.12 and 0.14 and 0.13	0.07 and -0.03 (2×) and -0.01				
GM2	-0.1 and -0.09 (2×) and -0.11	-0.06 and -0.03 (2×) and -0.04	0.1 and 0.05 (2×) and 0.06				
GD3	-0.21 (2×) and -0.15 (2×)	-0.13 and -0.11 and -0.09 (2×)	0.01 (2×) and -0.01 (2×)				
